Experiments:
[1] = target: T1, AR in stickleback kidney cytosolic extracts (Gasterosteus aculeatus, UniProt Q801Z1); test: Ligand competition assay with 1 nM [3H]-DHT, kidney cytosolic extracts; assay type: binding, three-spined stickleback (Gasterosteus aculeatus)
T1 sequence (Q801Z1 1-682): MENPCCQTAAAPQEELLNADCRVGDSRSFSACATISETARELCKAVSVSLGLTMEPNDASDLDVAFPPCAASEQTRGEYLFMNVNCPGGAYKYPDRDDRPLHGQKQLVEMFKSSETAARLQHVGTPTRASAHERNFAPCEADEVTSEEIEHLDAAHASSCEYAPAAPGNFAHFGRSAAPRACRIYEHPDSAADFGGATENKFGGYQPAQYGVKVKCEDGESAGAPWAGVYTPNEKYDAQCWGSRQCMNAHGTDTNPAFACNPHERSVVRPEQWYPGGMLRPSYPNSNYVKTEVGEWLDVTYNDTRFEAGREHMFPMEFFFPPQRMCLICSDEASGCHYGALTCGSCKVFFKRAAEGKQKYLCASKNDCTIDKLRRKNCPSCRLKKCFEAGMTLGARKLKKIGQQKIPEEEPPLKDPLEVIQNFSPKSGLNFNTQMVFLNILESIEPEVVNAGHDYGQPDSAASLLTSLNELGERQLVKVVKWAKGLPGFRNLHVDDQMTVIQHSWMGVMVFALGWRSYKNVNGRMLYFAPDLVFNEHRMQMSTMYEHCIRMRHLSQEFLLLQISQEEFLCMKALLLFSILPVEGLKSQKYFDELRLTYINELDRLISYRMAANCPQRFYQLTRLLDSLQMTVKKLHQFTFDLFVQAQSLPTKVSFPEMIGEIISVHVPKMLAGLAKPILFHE
Experimental: (§1) The steroid specificity of receptor binding was examined using a competitive binding assay. […] Following incubation, the reaction was terminated by addition of DCC and centrifugation and the specific binding in each tube was determined as described above.

[2] = target: T2, stickleback ARβ2 (reticulocyte lysate) (Gasterosteus aculeatus, UniProt Q801Z2); test: Ligand competition assay with 1 nM [3H]-DHT, ARβ2 containing reticulocyte extract; assay type: binding, three-spined stickleback (Gasterosteus aculeatus)
T2 sequence (Q801Z2 1-735): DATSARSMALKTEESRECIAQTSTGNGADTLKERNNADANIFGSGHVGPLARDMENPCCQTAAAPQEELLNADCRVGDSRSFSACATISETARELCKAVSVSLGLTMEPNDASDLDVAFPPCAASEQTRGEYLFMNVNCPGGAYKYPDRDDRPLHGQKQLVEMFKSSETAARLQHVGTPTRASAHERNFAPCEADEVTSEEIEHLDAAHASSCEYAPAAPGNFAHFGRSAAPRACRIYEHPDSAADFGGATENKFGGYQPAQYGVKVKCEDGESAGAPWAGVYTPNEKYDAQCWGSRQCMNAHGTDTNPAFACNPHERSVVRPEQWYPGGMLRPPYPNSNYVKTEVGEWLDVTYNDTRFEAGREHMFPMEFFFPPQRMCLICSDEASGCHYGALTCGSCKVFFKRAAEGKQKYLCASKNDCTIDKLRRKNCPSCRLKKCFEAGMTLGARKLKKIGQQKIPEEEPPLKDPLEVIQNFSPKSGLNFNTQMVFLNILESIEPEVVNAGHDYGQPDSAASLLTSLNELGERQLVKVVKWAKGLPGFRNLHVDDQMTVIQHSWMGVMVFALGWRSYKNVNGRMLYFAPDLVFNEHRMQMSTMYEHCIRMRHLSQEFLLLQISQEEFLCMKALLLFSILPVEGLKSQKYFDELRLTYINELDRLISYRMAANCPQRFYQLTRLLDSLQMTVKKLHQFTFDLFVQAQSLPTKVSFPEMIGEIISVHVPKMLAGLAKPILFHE
Experimental: The excised AR pBK CMV clones were digested with XbaI and EcoRI and the inserts were gel purified prior to ligation into the pCMV-TNT vector (Promega) between XbaI and EcoRI. […] AR was expressed by introducing the pCMV-TNT into the TNT coupled reticulocyte lysate system (Promega) according to the manufacturer's instructions. The size of the expressed products was determined by addition of S^35-methionin to the reticulocyte lysate system. The obtained protein suspension was analyzed on a denaturing 8% SDS PAGE and the sizes were determined using prestained SDS-PAGE broad range protein molecular weight standard (Bio-Rad) and a control luciferase protein of 62 kDa included in the reticulocyte lysate system (Promega). For use in binding assays AR was expressed in the absence of radioactive S^35-methionein and stored at 4°C until further used in recombinant binding assay experiments.
as §1

[3] = tested on: spiggin mRNA in adult female stickleback kidney; conditions: cited from earlier work
[4] = tested on: AR protein and AR mRNA in stickleback kidney; test: Hormone regulation of kidney AR protein (radioreceptor assay) and AR mRNA (slot blot); assay type: in vivo, three-spined stickleback (Gasterosteus aculeatus); conditions: data not shown; for regulation of AR protein (radioreceptor assay): sticklebacks exposed for 6 days
Experimental: (§2) The fish were anesthetized with 0.1% (v/v) 2-phenoxyethanol (Sigma, St. Louis, MO, USA) and implanted intraperitoneally with Silclear silicone tubing (10-mm length, 0.6-mm inner diameter, 1.2-mm outer diameter) containing steroids dissolved in cocoa butter. […] KA was used as this steroid is converted into KT by the fish. Tubes containing cocoa butter alone were used as controls. Following implantation the fish were maintained in 50-liter aquaria containing brackish water (0.5% salinity) at 20°C under LD 16:8 h. At sampling fish were decapitated and the kidneys were excised, frozen using liquid nitrogen, and stored at -70°C. A number of experiments were performed as follows. Spiggin mRNA was measured in post-breeding females that were dissected 2 days following implantation of tubes. Cytosolic androgen-receptors were measured in females and in castrated males. Males were castrated under anesthesia as above, by making a 1.5 mm long incision into the abdominal cavity on each side and removing the testes using forceps. The females and the castrated males were implanted with control and high dose tubes and dissected after 6 days. AR mRNA was studied in females implanted for 12 h, 2 and 16 days (separate experiments) with control and high dose tubes and in males castrated as above and implanted for 10 days with control tubes and high doses of KA or E2.
(§3) Total RNA was extracted using Tri Reagent™ (Sigma). Aliquots of 10 μg of total RNA were mixed with denaturing solution (6 × SSC, 7% (v/v) formaldehyde) and transferred onto a nylon membrane (Amersham Pharmacia Biotech) using a Minifold II Slot Blot Apparatus (Schleicher and Schuell, Keene, NH, USA). Membranes were probed using either a randomly primed [α-^32P]-dCTP radiolabelled AR cDNA fragment (918 base pairs) that was isolated by reverse transcriptase-polymerase chain reaction and sequenced as above, or a randomly primed [α-^32P]-dCTP radiolabelled spiggin-α cDNA. Hybridizations were performed at 65°C overnight (6 × SCC, 0.1% (w/v) SDS, 100 μg ml^-1 tRNA, and 5 × Denhardt's solution). The membranes were washed for 2 × 30 minutes at 42°C and 65°C in 0.1 × SCC, 0.1% (w/v) SDS whereafter Hyperfilm™-MP film was exposed at -70°C. The films were visualized using Curix 60 Film Developer. Following AR and spiggin mRNA determination the membranes were stripped and analyzed for 18S rRNA using a cDNA fragment as internal control. Each AR or spiggin transcript was then semi-quantified using Quantity ONE 4.2.3 (Bio-Rad, Laboratories, Inc, Hercules, CA, USA) in relation to its internal 18S transcript.
Aliquots (250 μl) of the nuclear or cytosolic preparations were added to each tube, the tubes were vortexed and incubated over night at 4°C. To stop the binding reaction, 250 μl DCC was added to each tube. The tubes were vortexed and the suspensions were incubated for 5 min at 4°C, before spinning at 3,000 × g at 4°C for 5 min. The supernatants were decanted into 7 ml scintillation vials, 5 ml of standard scintillation cocktail was added and the radioactivity in each sample was measured in a liquid scintillation counter (Beckman LS 6000SC, Beckman Instruments, Fullerton, CA). The procedure used for the expressed recombinant ARβ2 was modified as follows. […] The expressed proteins were diluted 1:100 and aliquots (100 μl) were added to each reaction tube. The tubes were vortexed and incubated over night at 4°C. To stop the binding reaction, 200 μl DCC was added to each tube. The tubes were vortexed and the suspension were incubated for 5 min at 4°C, before spinning at 3,000 × g at 4°C for 5 min. 250 μl of the supernatant was transferred into 5 ml scintillation vials and 4 ml of standard scintillation cocktail was added before the radioactivity in each sample was measured in a liquid scintillation counter (Wallac 1409, Wallac Oy, Turku, Finland).

[5] = tested on: spiggin mRNA in adult female stickleback kidney; test: Induction of spiggin mRNA in stickleback kidney after steroid implants (slot blot); assay type: in vivo, three-spined stickleback (Gasterosteus aculeatus)
Experimental: as §2, §3

rainbow trout ARα = conditions: COS-1 cell line; read-out: IC50 (ligand binding); cited from earlier work
stickleback ARβ2 = test: ARE-luciferase trans-activation assay, stickleback ARβ2 in transfected HepG2 and ZFL cells; assay type: cell-based, three-spined stickleback (Gasterosteus aculeatus); conditions: 40 h, versus control
Experimental: Two liver epithelial cell lines were used to test receptor activity. HepG2 cells (ATCC, Manassas, VA) were maintained in DMEM supplemented with 10% FCS and non-essential amino acids. ZFL cells (ATCC) were maintained in 50% L-15 Leibovitz, 15% […] and 35% DMEM supplemented with 10% FCS (Gibco, Paisley, Scotland, UK) and 50 ng ml-1 EGF (Sigma). Cells were cultured at 37°C (HepG2) or 28°C (ZFL) in 5% CO2. The transfection experiments were initiated by replacing the tissue culture medium with fresh phenol-free medium supplemented with charcoal stripped FCS and the cells were seeded on 24-well plates. Transfections were performed at 90–95% confluence using 1,5 μl Lipofectamine 2000 (Invitrogen, Carlsbad, CA, USA) and 0,6 μg DNA per well. Transfected DNA contained 60 ng pRL (Promega), 270 ng androgen response element (ARE) luciferase reporter vector, 270 ng stickleback ARβ2 expression vector or 270 ng human AR expression vector (pCMVhAR) while 270 ng empty TNT cloning vector was used to control background luciferase levels following transfections. Two different ARE containing promoter constructs were tested, one containing 3 separate ARE (HRE; slp-ARU) and a second one construct (slp-HRE2) containing 4 copies of the ARE with high affinity for R1881, a synthetic androgen, and low affinity for dexamethasone, a synthetic glucocorticoid.
After 16 h the transfection medium was replaced with fresh phenol-free medium, supplemented with charcoal stripped FCS, containing different steroid hormones. The cells were exposed to the hormones for 40 h and luciferase levels were detected using the Dual Luciferase Assay kit (Promega) in a TD 20/20 Luminometer (Turner Designs, Sunnyvale, CA). For each cell line, transfection assay was performed for each concentration with n = 4 and the luciferase value of each assay were normalized to its corresponding Renilla luciferase activity. Each experiment was repeated a minimum of 3 times. The fold-induction is presented as luciferase values normalized against the control. The control levels were arbitrarily set to 1.0 for each cell line.

With `C[C@]12CCC(=O)C=C1CC[C@@H]1[C@@H]2[C@@H](O)C[C@@]2(C)[C@H]1CC[C@]2(O)C(=O)CO` [F, cortisol] as the molecule, how does the “binding observed (competition for [3H]-DHT)” value (from here on “binding observed”) [1] read?
The value was “not”.

And the “binding (competition for [3H]-DHT)” value [2]?
The value was “poor binding”.

With `C[C@]12CCC(=O)C=C1CC[C@@H]1[C@@H]2C(=O)C[C@]2(C)C(=O)CC[C@@H]12` [KA, 11-ketoandrostenedione] as the molecule, how does the “spiggin mRNA induction after longer exposures” value ([3]; 16 days exposure) read?
Its value is “only observed with KA”.

And the “regulation of AR mRNA (slot blot)” value [4]?
The value was “None of the three tested androgens regulated”.

What about the “regulation of AR protein (radioreceptor assay)” value (shortened to “regulation of AR protein”) [4] of the same molecule?
Its value is “None of the three tested androgens regulated”.

What about the “effectiveness at increasing kidney spiggin mRNA levels relative to T” value ([5]; 25 μg implant dose, females) of the same molecule?
The value was 50 times.

What about the “increase in spiggin mRNA levels” value ([5]; females implanted with 25 μg KA, 2 days, versus control) of the same molecule?
The value was 30 fold.

With `C[C@]12CC[C@H]3[C@@H](CCC4=CC(=O)CC[C@@]43C)[C@@H]1CC[C@@H]2O` [T, testosterone] as the molecule, how does the “regulation of AR mRNA (slot blot)” value [4] read?
The value was “None of the three tested androgens regulated”.

And the “regulation of AR protein” value [4]?
The value was “None of the three tested androgens regulated”.

And the spiggin induction ([5]; 1 μg implant dose, females)?
Its spiggin induction is “not inducing spiggin production”.

Which EC50 ([2]; read-out: EC50 (competition for [3H]-DHT binding)) does the source give for `C[C@]12CC[C@@H]3c4ccc(O)cc4CC[C@H]3[C@@H]1CC[C@@H]2O` [E2, 17β-estradiol] here?
The EC50 was 64.61 ± 0.28 nM.

And the “regulation of AR mRNA (slot blot)” value [4]?
The value was “repressor”.

What about the “regulation of AR protein” value [4] of the same molecule?
The value was “repressor”.

For `CC(C)C(=O)Nc1ccc([N+](=O)[O-])c(C(F)(F)F)c1` [flutamide], which “blocking of androgen induction of spiggin protein and mRNA synthesis” value ([3]; anti-androgen, ref 25 and Olsson, Berg, Lindberg, unpublished results) is on record?
The value was “can be blocked”.

For `CC12CCC(=O)C=C1CCC1C2CCC2(C)C1CCC2(O)C(O)CO` (stereo not drawn) [20β-S, 17,20β,21-trihydroxy-4-pregnen-3-one], which “binding observed” value [1] is on record?
Its value is “not”.

What does the source list for `C[C@]12CCC(=O)C[C@@H]1CC[C@@H]1[C@@H]2CC[C@]2(C)[C@@H](O)CC[C@@H]12` [DHT, 5α-dihydrotestosterone]?
IC50 (rainbow trout ARα): 0.6 nM; induction of luciferase activity (stickleback ARβ2; HepG2 cells): 4.1 fold; induction of luciferase activity (stickleback ARβ2; ZFL cells): 4.5 fold; regulation of AR mRNA (slot blot) [4]: None of the three tested androgens regulated; regulation of AR protein (radioreceptor assay) [4]: None of the three tested androgens regulated

For `C[C@@H](O)[C@@]1(O)CC[C@H]2[C@@H]3CCC4=CC(=O)CC[C@]4(C)[C@H]3CC[C@@]21C` [17,20β-P, 17,20β-dihydroxy-4-pregnen-3-one], which “binding observed” value [1] is on record?
The value was “not”.

From PMC1192819, “Molecular cloning and characterization of a nuclear androgen receptor activated by 11-ketotestosterone” (Reproductive biology and endocrinology : RB&E, 2005)
